We go through one molecule from US10993923B2, “Method for ameliorating fibrosis using 1-[4-chloro-3-(trifluoromethyl)phenyl]-3-[3-(4-cyanophenoxy)phenyl]urea” (priority 2016, dated 2021).

Assay [1] has as its system BDL-induced cholestasis fibrosis in mice. In words: Bile duct ligation (BDL) fibrosis mice treatment model. It counts as in vivo, Balb/C mice. As to conditions: 10 mg/kg from day 8 until sacrifice on day 14 following BDL; FIG. 13C, 13D. The text has this: In the bile duct ligation (BDL) mouse model, the common bile duct of Balb/C mice was double-ligated and excised. Mice were fed daily with vehicle or 1-[4-chloro-3-(trifluoromethyl)phenyl]-3-[3-(4-cyanophenoxy)phenyl]urea on day 1 or day 8 until they were sacrificed on day 14.
(§1) The mice liver samples were stored in 10% formaldehyde, dehydrated with gradient alcohol, embedded in paraffin blocks, sectioned to a thickness of 3 μm, placed on glass slides, and stained with Picrosirius Red Stain kit (ScyTek, USA), following the manufacturer's instructions. The severity of liver fibrosis was graded according to the Ishak fibrosis score. Quantitative collagen-positive area (qCPA) was determined by densitometry via ImageJ software. Hepatic hydroxyproline concentrations were measured by the hydroxyproline assay kit (Biovision, USA), following the manufacturer's instructions Immunohistochemistry was performed by the Leica BOND-MAX automatic chromatograph (Leica Biosystems, Germany), following the manufacturer's instructions.

In assay [2] the test system is CCl4-induced hepatic fibrosis in mice. Kind of assay: CCl4-induced hepatic fibrosis mice prevention model. Type of assay: in vivo, male C57BL/6J mice. As to conditions: concurrently administered with CCl4 for 4 weeks; FIG. 11A-11E.
Excerpt: (§2) In male C57BL/6J mice, liver fibrosis was induced by carbon tetrachloride (CCl4). The mice were given peritoneal injection of carbon tetrachloride for 4 or 8 weeks every two weeks.
as §1

A further assay has as its system HSC-T6 cells. In words: Cell viability (MTS), HSC-T6 cells. As to conditions: 24 hours; effect more significant than sorafenib; FIG. 14A. Type of assay: cell-based, rat. The method, then: (§3) Rat immortal hepatic stellate cell line HSC-T6 and LX2 human hepatic stellate cell line were provided by Professor Scott Friedman of Mount Sinai Hospital in New York, USA. The primary mouse HSCs were obtained via the way: after intubating the hepatic portal vein of the mouse, the cells were perfused with Leffert's and ethylene glycol bis-aminoethyl ether tetraacetic acid (EGTA) buffer in situ, and then collagenase was injected to digest the liver tissue, and then the primary mouse HSCs were isolated by Histodnz gradient. […]
(§4) HSC-T6 cells, LX2 cells or primary mouse HSCs cells were seeded in 96-well plates (5,000 cells/well) for 24 hours, and the cells were treated with various concentrations of 1-[4-chloro-3-(trifluoromethyl)phenyl]-3-[3-(4-cyanophenoxy)phenyl]urea or Sorafenib for 24 or 48 hours. The effect of each reagent on the cell viability and the cell were evaluated by CellTiter 96 AQueous one solution of 3-(4,5-dimethylthiazol-2-yl)-5-(3-carboxymethoxyphenyl)-2-(4-sulfophenyl)-2H-tetra zolium, an inner, MTS (Promega, USA). […] The proportion of apoptotic cells was mixed the early (Annexin V+/PI−) and the late (Annexin V+/PI+) apoptotic cells measured by BD FACS Verse flow cytometry (BD, USA).

Assay [3] has as its system LX2 cells. Kind of assay: Apoptosis (Annexin V / propidium iodide flow cytometry), LX2 cells. Type of assay: cell-based, human. The method, then:
Rat immortal hepatic stellate cell line HSC-T6 and LX2 human hepatic stellate cell line were provided by Professor Scott Friedman of Mount Sinai Hospital in New York, USA. The primary mouse HSCs were obtained via the way: after intubating the hepatic portal vein of the mouse, the cells were perfused with […] and ethylene glycol bis-aminoethyl ether tetraacetic acid (EGTA) buffer in situ, and then collagenase was injected to digest the liver tissue, and then the primary mouse HSCs were isolated by Histodnz gradient. HSC-T6 cells were cultured in Waymouth medium; LX2 cells and primary mouse HSCs were cultured in Dulbecco's Modified Eagle Medium (DMEM) containing 10% fetal bovine serum (FBS), 100 μg/mL penicillin, 100 μg/mL streptomycin, and 2 mM L-glutamine HSC-T6 cells, LX2 cells and primary mouse HSCs were cultured in a humidified incubator containing 5% carbon dioxide at 37° C. After adding the FBS, the resting HSC is started. […] The experiment was carried out following the manufacturer's instructions, and each group was triple repetition. […] The proportion of apoptotic cells was mixed the early (Annexin V+/PI-) and the late (Annexin V+/PI+) apoptotic cells measured by BD FACS Verse flow cytometry (BD, USA). Plasmids encoding the human wild-type SHP-1 and SHP-1 mutant, in which the N-SH2 domain was […] was changed into an […]) were cloned into the pCMV6-entry vector with myc-tag. These mutants were confirmed through DNA sequencing. […] (Chicago, Ill., USA).

Assay [4] concerns CCl4-induced hepatic fibrosis in mice. Kind of assay: CCl4-induced hepatic fibrosis mice regression model. It counts as in vivo, male C57BL/6J mice. As to conditions: 10 mg/kg for 4 weeks without CCl4 after 8 weeks CCl4 induction.
Excerpt: as §2, §1

Another assay deals with T1, SHP-1 (Homo sapiens, UniProt P29350).
T1 construct: LX2 cell protein extract were reacted with anti-SHP-1 antibody in immunoprecipitation buffer overnight; endogenous in cells; host or cells: LX2 cells
T1 sequence (P29350 whole entry): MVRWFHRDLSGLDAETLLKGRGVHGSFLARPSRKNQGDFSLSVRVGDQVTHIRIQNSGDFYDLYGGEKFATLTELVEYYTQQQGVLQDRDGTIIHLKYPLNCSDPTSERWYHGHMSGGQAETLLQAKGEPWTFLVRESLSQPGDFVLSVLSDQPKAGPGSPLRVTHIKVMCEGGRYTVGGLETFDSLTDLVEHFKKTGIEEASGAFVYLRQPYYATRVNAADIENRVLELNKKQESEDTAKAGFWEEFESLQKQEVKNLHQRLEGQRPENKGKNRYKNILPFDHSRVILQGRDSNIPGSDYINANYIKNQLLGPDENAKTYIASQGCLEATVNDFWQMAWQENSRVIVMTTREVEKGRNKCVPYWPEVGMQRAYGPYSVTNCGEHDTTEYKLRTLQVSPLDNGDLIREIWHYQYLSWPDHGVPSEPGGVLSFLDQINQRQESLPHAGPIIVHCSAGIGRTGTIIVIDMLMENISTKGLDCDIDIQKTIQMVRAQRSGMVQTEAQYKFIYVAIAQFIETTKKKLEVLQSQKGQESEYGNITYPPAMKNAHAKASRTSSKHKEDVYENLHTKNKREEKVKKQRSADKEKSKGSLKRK
Kind of assay: SHP-1 phosphatase activity, LX2 cells. Type of assay: cell-based. The method, then:
After drug treatment, mouse fibroblasts (NIH3T3 cell line), human lung epithelial cells (A549 cell line) or LX2 cell protein extract were reacted with anti-SHP-1 antibody in immunoprecipitation buffer overnight. Protein A/G Sepharose Fast Flow Beads (GE) were added to each sample, followed by a rotation reaction at 4° C. for 3 hours. The 96EnzChek® tyrosine phosphatase assay kit (R-22067) was used for SHP-1 activity assay (Invitrogen, USA).
Plasmids encoding the human wild-type SHP-1 and SHP-1 mutant, in which the N—SH2 domain was truncated (dN1) or one aspartic acid at site 61 was changed into an alanine residue (D61A) were cloned into the pCMV6-entry vector with myc-tag. These mutants were confirmed through DNA sequencing. Smart-pool siRNA, including the control (D-001810-10), and SHP-1 (PTPN6, L-009778-00-0005) were obtained from Dharmacon Inc. (Chicago, Ill., USA). For transient expression, SHP-1 plasmids or siRNA (final concentration, 100 nM) with the Lipofectamine 2000 transfection reagent were pretransfected into the LX2 cells for 24 h, following the manufacturer's instructions.

For assay [5], the system named is LX2 cells. In words: Cell viability (MTS), LX2 cells. It counts as cell-based, human. As to conditions: 24 hours; effect more significant than sorafenib; FIG. 14A. The method, then: as §3, §4

For `N#Cc1ccc(Oc2cccc(NC(=O)Nc3ccc(Cl)c(C(F)(F)F)c3)c2)cc1` [1-[4-chloro-3-(trifluoromethyl)phenyl]-3-[3-(4-cyanophenoxy)phenyl]urea], in assay [1], the “quantitative collagen-positive area (qCPA)” value is recorded as “significantly reduced”. The “hepatic fibrosis (Picrosirius Red staining, qCPA, Ishak fibrosis score, α-SMA expression, hydroxyproline concentration)” value in assay [2] is recorded as “significant fibrosis regression”. In the assay with HSC-T6 cells, the “viability of HSC-T6 cells” value was “dose-dependent effects to reduce the viability”. In the assay on LX2 cells [3] (5 μM, 24 hours, FIG. 17D, 17E), the “apoptotic LX2 cells, ectopic expression of the vector control and wild-type SHP-1” value is listed as “significantly increased the apoptotic LX2 cells”. Moreover, in the assay with LX2 cells [3] (LX2, 24 hours, compared with sorafenib, FIG. 14B), the HSC apoptosis result is recorded as “significantly increased HSC apoptosis in a dose-dependent manner”. In addition, the “cell apoptosis and p-STAT3 downregulation in dN1 and D61A mutants” value with LX2 cells [3] (LX2, 5 μM, 24 hours, FIG. 17E) is reported as “insensitive”. The “anti-proliferative activity after SHP-1 knockdown by using siRNA” value in the assay with LX2 cells [3] (LX2, FIG. 16F) is given as “significantly counteracted”. Also, in assay [4] (FIG. 12G), the “qCPA (quantitative collagen-positive area)” value is given as “significantly decreased”. For the same molecule, the Ishak fibrosis score entry in assay [4] (FIG. 12H) is listed as “significantly decreased”. Moreover, the “SHP-1 activity in the ectopic expression of the vector and wild-type SHP-1” value on SHP-1 (FIG. 17C) is on record as “significantly increased the SHP-1 activity”. In addition, the SHP-1 activity entry on SHP-1 (LX2, sorafenib 5 μM, compound 2.5 or 5 μM, FIG. 16C) is on record as “significantly increased the SHP-1 activity at a lower concentration”. The “enhancing SHP-1 activity, compared with sorafenib” value on SHP-1 (test system not stated at the place, text refers to FIG. 2A) is “better than the known anti-fibrosis drug sorafenib”. Also, the “viability of LX2 cells” value in the assay with LX2 cells [5] is “dose-dependent effects to reduce the viability”.
